The values that follow come from article PMC4111603 (PLoS ONE, 2014).

Where two headings read alike, the source gives them in different places.

The test system of data set [1] is fatty acid amide hydrolase (FAAH). The conditions noted are these: cited from earlier work.
For data set [2], the system named is COX-2. The settings on record: read-out: IC50, 2-AG oxygenation; cited from earlier work.
Another data set deals with T1, rat brain FAAH (Rattus norvegicus, UniProt P97612).
T1 construct: FAAH activity was quantified by measuring hydrolysis of tritium labelled AEA in rat brain homogenates; from tissue; host or cells: rat brain (minus cerebella), Wistar or Sprague-Dawley, washed membrane pellets
T1 sequence (P97612 1-579): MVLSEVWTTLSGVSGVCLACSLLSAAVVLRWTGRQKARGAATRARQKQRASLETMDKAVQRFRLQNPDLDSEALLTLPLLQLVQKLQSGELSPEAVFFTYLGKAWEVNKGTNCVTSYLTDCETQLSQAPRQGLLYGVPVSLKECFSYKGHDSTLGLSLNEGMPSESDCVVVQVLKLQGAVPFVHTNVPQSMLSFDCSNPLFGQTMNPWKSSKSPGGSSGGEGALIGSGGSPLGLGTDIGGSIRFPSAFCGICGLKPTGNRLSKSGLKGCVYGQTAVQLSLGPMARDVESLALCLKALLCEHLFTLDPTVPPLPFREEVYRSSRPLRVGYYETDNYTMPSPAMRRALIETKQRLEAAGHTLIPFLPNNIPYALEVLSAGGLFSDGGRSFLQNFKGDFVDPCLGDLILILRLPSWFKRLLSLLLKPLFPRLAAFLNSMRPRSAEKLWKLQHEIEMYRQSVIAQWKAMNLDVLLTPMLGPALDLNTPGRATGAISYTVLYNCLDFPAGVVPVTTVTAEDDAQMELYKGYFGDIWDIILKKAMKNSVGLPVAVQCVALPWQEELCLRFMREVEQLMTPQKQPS
The data set is described as follows: FAAH hydrolysis of [3H]AEA in rat brain homogenates. It counts as biochemical. The settings on record: 0.5 µM AEA; for inhibition at 1000 µM: read-out: % inhibition of [3H]AEA hydrolysis @ 1000 µM, 1000 µM compound. The procedure:
Brains (minus cerebella) from adult Wistar or Sprague-Dawley stored at −80°C were thawed, weighed and homogenized in cold buffer (20 mM HEPES, 1 mM MgCl2 pH 7.0). Homogenates were centrifuged at 35,000 g at 4°C for 20 min and the pellet was resuspended in homogenization buffer (repeated twice) before being incubated at 37°C for 15 min to degrade any endogenous substrate that might interfere with the FAAH assay. Following centrifugation, the pellets were resuspended in cold buffer (50 mM Tris-HCl, 1 mM EDTA, 3 mM MgCl2, pH 7.4). The protein concentration of each homogenates was determined according to the Bradford assay after which the samples were frozen in aliquots at −80°C until used for FAAH assay. Ethical permission for the animal experiments was obtained from the local animal research ethical committee (Umeå Ethical Committee for Animal Research, Umeå, Sweden).
The assay was performed according to Boldrup et al.. Homogenates (1 µg protein per assay) diluted in 10 mM Tris-HCl, 1 mM EDTA, pH 7.4 or pH 5.1 were mixed with test substance dissolved in DMSO (total concentration in assay 5%) at an ambient temperature of 4°C. Reactions were initiated by addition of AEA-[^3H] (assay concentration 0.5 µM) in 10 mM Tris-HCl, 1 mM EDTA, pH 7.4 containing 10 mg ml^−1 fatty acid-free bovine serum and incubation at 37°C which was allowed to proceed for 10 min. […] Blank samples contained buffer instead of homogenate and DMSO (5%). The assay volume of each sample was 200 µl. The pH values given in the text were determined by measurement at 37°C of scaled-up mixtures of homogenization and assay buffers. The reaction was terminated by addition of 400 µl activated charcoal (80 µl activated charcoal +320 µl 0.5 M HCl) and placement of samples on ice. Samples were kept in room temperature for 45–60 min before being centrifuged at 2500 rpm for 10 min. Aliquots (200 µl) of the supernatant was analyzed for tritium content by liquid scintillation with quench correction.
(§1) FAAH inhibition was calculated using log(inhibitor) vs. response with variable slope (four parameters) algorithm in the GraphPad Prism computer program (GraphPad Software Inc., San Diego, CA. USA). […] The two curves were compared by Akaike’s informative criteria and the best fit was chosen. Initial COX activities were calculated as the change in oxygen tension between 10 and 30 seconds after addition of enzyme.

For data set [3] the following is noted: cited from earlier work; for urinary recovery: 24 h after administration of 400 mg of ibuprofen.
For data set [4] the following is noted: cited from earlier work.
Another data set deals with COX-1. Also noted: method as in PMID 24120370. The settings on record: read-out: IC50, AA oxygenation by COX-1; cited from earlier work.
A further data set has as its target T2, Ovine COX-1 (Ovis aries, UniProt P05979).
T2 construct: purchased Cayman Chemical Co. 60100
T2 sequence (P05979 25-600): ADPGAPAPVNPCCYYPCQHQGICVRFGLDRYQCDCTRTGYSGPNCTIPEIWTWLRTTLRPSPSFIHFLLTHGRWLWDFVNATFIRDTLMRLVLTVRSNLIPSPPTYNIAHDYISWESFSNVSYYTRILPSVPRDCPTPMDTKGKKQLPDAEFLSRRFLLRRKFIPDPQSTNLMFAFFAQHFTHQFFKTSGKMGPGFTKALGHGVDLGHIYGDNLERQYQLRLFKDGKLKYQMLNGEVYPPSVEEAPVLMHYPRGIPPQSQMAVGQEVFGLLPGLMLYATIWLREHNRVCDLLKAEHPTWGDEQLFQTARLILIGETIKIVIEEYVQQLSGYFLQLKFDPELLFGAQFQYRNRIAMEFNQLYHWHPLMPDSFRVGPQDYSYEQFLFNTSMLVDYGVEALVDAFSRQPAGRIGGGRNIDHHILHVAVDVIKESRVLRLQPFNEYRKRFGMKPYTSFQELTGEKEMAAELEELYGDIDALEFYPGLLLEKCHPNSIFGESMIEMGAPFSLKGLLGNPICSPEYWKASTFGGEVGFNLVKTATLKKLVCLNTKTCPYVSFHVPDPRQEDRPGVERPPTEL
The data set is described as follows: COX-1 oxygenation of arachidonic acid, oxygen electrode. It counts as biochemical. The conditions noted are these: for COX-1 activity (% of control): 10 µM AA, initial activity 10-30 s, mean ± s.e.m., n = 3; for inhibition at 300 µM: 300 µM compound, read-out: inhibition of COX-1-catalysed oxygenation of arachidonic acid. The procedure: (§2) The assay was performed according to Meade et al. with minor modifications using an oxygen electrode chamber with integral stirring (Oxygraph System, Hansatech Instruments, King’s Lynn, U.K.). The electrode was calibrated to ambient temperature and air pressure. Samples were prepared in 0.1 M Tris-HCl buffer pH 7.4 containing 1 µM haematin, 2 mM phenol, 5 mM EDTA, 10 µM substrate (AA or 2-AG) (final assay volume was 2 ml). After addition of test substance dissolved in DMSO (final assay concentration 1%) a baseline was established for 5 min before initiation of reaction by addition of 200 units COX-1 or COX-2. Change in oxygen consumption was monitored for approximately 5 min.
as §1

In data set [5] the test system is COX-2. The settings on record: read-out: IC50, AA oxygenation by COX-2; cited from earlier work.
For data set [6], the target named is T3, human recombinant COX-2 (Homo sapiens, UniProt P35354).
T3 construct: purchased Cayman Chemical Co. 60122
T3 sequence (P35354 18-604): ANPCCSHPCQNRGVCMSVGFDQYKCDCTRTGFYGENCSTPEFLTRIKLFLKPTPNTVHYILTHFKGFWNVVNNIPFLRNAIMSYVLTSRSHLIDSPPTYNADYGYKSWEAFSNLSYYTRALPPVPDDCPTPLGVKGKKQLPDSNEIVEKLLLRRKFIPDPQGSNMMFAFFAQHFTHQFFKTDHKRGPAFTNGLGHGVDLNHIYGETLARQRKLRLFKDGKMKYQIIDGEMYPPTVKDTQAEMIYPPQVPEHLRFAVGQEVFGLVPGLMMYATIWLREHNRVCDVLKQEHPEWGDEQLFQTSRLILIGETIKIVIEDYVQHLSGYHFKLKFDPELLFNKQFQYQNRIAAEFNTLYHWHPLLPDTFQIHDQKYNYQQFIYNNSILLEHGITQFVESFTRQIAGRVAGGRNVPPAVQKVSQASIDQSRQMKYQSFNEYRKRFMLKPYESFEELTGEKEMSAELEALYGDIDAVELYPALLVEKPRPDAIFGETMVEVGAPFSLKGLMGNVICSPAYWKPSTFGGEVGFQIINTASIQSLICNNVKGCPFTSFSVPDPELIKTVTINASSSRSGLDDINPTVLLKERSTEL
The data set is described as follows: COX-2 oxygenation of 2-AG, oxygen electrode. It counts as biochemical. The settings on record: for COX-2 activity (% of control): substrate 2-AG 10 µM, initial activity 10-30 s, n = 3. Here is the method:
as §2, §1

The target in data set [7] is T3, human recombinant COX-2. The data set is described as follows: COX-2 oxygenation of arachidonic acid, oxygen electrode. It counts as biochemical. The conditions noted are these: for COX-2 activity (% of control): substrate AA 10 µM, initial activity 10-30 s, n = 3. The procedure: as §2, §1
A further data set relates to µ-opoid receptors. The settings on record: cited from earlier work.
In a further data set the test system is FAAH. Also noted: method as in PMID 16997568. The settings on record: pH 6 and 8; rat brain homogenates; cited from earlier work.
Another data set has as its system NAAA. Also noted: method as in PMID 16154384. The conditions noted are these: cited from earlier work.
Setting [8] is: pH 6.0, read-out: IC50, inhibition of [3H]AEA hydrolysis (converted).
The mark [9] stands for this setting: pH 6.0, read-out: pI50, inhibition of [3H]AEA hydrolysis (converted).

Consider `Cc1cccnc1NC(=O)C(C)c1ccc(CC(C)C)cc1` (stereo not drawn), for which the “potency as FAAH inhibitor at pH 6 versus pH 8” value in data set [1] is on record as “slightly less potent inhibitor of FAAH at pH 6 than at pH 8”.

For the molecule `CC(C(=O)O)c1ccc(-c2ccccc2)c(F)c1` (racemic) [Flurbiprofen, (±)-2-flouro-α-methyl(1,1′-biphenyl)-4-acetic acid, reference compound], the IC50 in the data set on COX-2 [2] was […]; at rat brain FAAH (setting [8]), 28 µM; on rat brain FAAH (setting [9]), 27.5 µM; on rat brain FAAH (pH 7.3, read-out: IC50, inhibition of [3H]AEA hydrolysis (converted)), 51 µM; at rat brain FAAH (pH 7.3, read-out: pI50, inhibition of [3H]AEA hydrolysis (converted)), 51.3 µM; in the data set with COX-1, […]. Also, the IC50 with COX-2 [5] is […]. Besides, in data set [3] (flurbiprofen 50 mg a day for 10 consecutive days), the “share of the dose recovered in the urine” value is listed as 23%. In [4] (dose of 50 mg), the “maximal plasma concentration (racemate equivalent of R- and S-enantiomers)” value is […]. At Ovine COX-1 (30 µM compound), the “inhibition of COX-1” value is “Complete inhibition”.

Turning to `CC(C)Cc1ccc(C(C)C(=O)O)cc1` (racemic) [Ibuprofen, (±)-2-(4-Isobutylphenyl)propanoic acid], the urinary recovery in data set [3] was 11%. The IC50 in [1] (read-out: potency, inhibition of AEA hydrolysis by FAAH) is 270 µM. Also, in [4] (200 mg single doses of two different ibuprofen preparations), the peak plasma concentration is 110 to 150 µM.

`CC(C(=O)O)c1ccc(C(O)C(C)C)cc1` (stereo not drawn) [1′-OH-Ibuprofen, 2-[4-(1-hydroxy-2-methylpropyl)phenyl]propionic acid]: the “COX-2 activity (% of control)” value was 103±22 % of control at human recombinant COX-2 [6] (100 µM NSAID), 108±15 % of control at human recombinant COX-2 [6] (300 µM NSAID), 91±8 % of control on human recombinant COX-2 [7] (100 µM NSAID) and 59±13 % of control at human recombinant COX-2 [7] (300 µM NSAID). Besides, the figures for the IC50 on rat brain FAAH (setting [8]) and at rat brain FAAH (setting [9]) were 340 µM and 339 µM, respectively. Also, the inhibition (commonly the relative decrease from the control value, in per cent) at 1000 µM at rat brain FAAH (pH 7.3) was 47 ± 0.8%. Besides, the entries for the “COX-1 activity (% of control)” value at Ovine COX-1 (100 µM NSAID), at Ovine COX-1 (300 µM NSAID) and at Ovine COX-1 (1000 µM NSAID) were 112±21 % of control, 81±21 % of control and 102±18 % of control, respectively. In addition, the inhibition at 300 µM at Ovine COX-1 worked out at 19%.

With `CN1CC[C@]23c4c5ccc(O)c4O[C@H]2[C@@H](O[C@@H]2O[C@H](C(=O)O)[C@@H](O)[C@H](O)[C@H]2O)C=C[C@H]3[C@H]1C5` [6-glucuronide metabolite of morphine], the “potency relative to parent drug (morphine)” value with µ-opoid receptors is on record as 2–4 times.

In the case of `CC(Cc1ccc(C(C)C(=O)O)cc1)C(=O)O` (stereo not drawn) [Carboxyibuprofen, 2-[4-(2-carboxypropyl)phenyl]propionic acid], the “COX-2 activity (% of control)” value on human recombinant COX-2 [6] (100 µM NSAID) is on record as 105±19 % of control; on human recombinant COX-2 [6] (300 µM NSAID), 132±17 % of control; on human recombinant COX-2 [7] (100 µM NSAID) it was 132±16 % of control; on human recombinant COX-2 [7] (300 µM NSAID), 139±41 % of control. The “effect on rate of oxygenation of 2-AG” value at human recombinant COX-2 [6] (300 µM compound, Fig. S1) was “appeared to increase the rate of oxygenation”. On human recombinant COX-2 [7] (10 µM compound, Fig. S2, preliminary, two experiments), the “effect on rate of oxygenation of AA” value is on record as “appeared to increase the rate of oxygenation”. The IC50 on rat brain FAAH (setting [8]) is 410 µM; at rat brain FAAH (setting [9]), 417 µM. Further, the inhibition at 1000 µM at rat brain FAAH (pH 7.3) turned out to be 31 ± 4%. For the same molecule, in [3], the urinary recovery was 40%. Further, on Ovine COX-1, the inhibition at 300 µM worked out at 4%.

`NC(=O)c1cccc(-c2cccc(OC(=O)NC3CCCCC3)c2)c1` [URB597]: the “inhibition of AEA hydrolysis” value in the data set with FAAH is “completely inhibits”. Further, the “activity towards NAAA” value in the data set on NAAA is “lacks activity”.
